Results: patent US20150010644A1, “OXYGENATION OF THE MUCOSAL BARRIER BY ENTERAL ARTIFICIAL BLOOD TO PREVENT HYPOXIC BREAKDOWN OF THE MUCOSAL BARRIER” (THE REGENTS OF THE UNIVERSITY OF CALIFORNIA, priority 2011, published 2015)
“Also recorded” adds a separate entry of the source.

Legend:
[1] = tested on: lectin staining (carbohydrate portion of mucin); experiment: Lectin fluorescent staining (carbohydrate portion of mucin) of jejunal sections, rat SAO model; assay type: in vivo; conditions: SAO 30 min; lumenal injection 30 min prior
Procedure: (§1) Male Wistar rats (250-300 g, Harlan Sprague Dawley Inc, Indianapolis, Ind.) were randomly assigned to each group (n=4 per group). Rats were kept on solid food restriction for 12 hours prior to surgery with water ad libitum. […] Sham groups were treated the same with the arteries separated but not ligated.
(§2) Perfluorocarbon groups: Perfluorodecalin (PFC) (Sigma-Aldrich, St Louis, Mo.) with oxygen, previously bubbled into the solution for 10 min, was injected into the lumen of the intestine 30 min prior SHAM or SAO surgery (SHAM+PFC+O2, SAO+PFC+O2). PFC without oxygen bubbled into the solution was injected 30 min prior SHAM or SAO surgery (SHAM+PFC, SAO+PFC).
(§3) ATP-MgCl2 groups: ATP-MgCl2 (Sigma-Aldrich), 25 mg/kg BW was injected in the lumen of the intestine 30 min prior to SHAM or SAO surgery (SHAM+ATP, SAO+ATP).
(§4) pH groups: Acidic saline (pH 5.5) injected in the lumen of the intestine 30 min prior SHAM surgery or HEPES buffer (20 mM) injected into the lumen of the intestine 30 min prior to SHAM or SAO surgery.
(§5) Free radicals groups: The hydroxyl radical scavenger, dimethylthiourea (DMTU, Sigma-Aldrich; 2.0 mg/g BW) was injected in the lumen of the intestine 30 min prior to SAO (SAO+DMTU).
(§6) Tissue cryosections: After euthanasia, jejunal sections (˜1 cm in length) were excised without removal of lumenal contents and suspended in Tissue-Tek O.C.T. Compound (Sakura Finetek, Torrance, Calif.), snap frozen in isopentane/liquid nitrogen, and stored at −80° C. for analysis. Cryosections (5 μm thickness) along the longitudinal axis of the villi were used throughout all experiments. Cryosections were fixed in 10% formalin solution and processed in a non-blinded fashion.
(§7) Mucin and lectin staining: The simultaneous visualization of lectins and mucin was carried out using Lectin GS-II from Griffonia simplicifolia, Alexa Fluor® 594 Conjugate (EnzChek®, Invitrogen, Carlsbad, Calif.) and specific antibody for mucin2 with FITC secondary antibody 1:10000 (Santa Cruz Biotechnology) and nuclei counterstaining with DAPI. Sections were observed on an inverted microscope (20× objective) using the appropriate fluorescent filters.

ischemic intestine = experiment: Rat model with severe ischemic intestine (30 min ischemia), enteral oxygen carrier; assay type: in vivo; conditions: 7 ml for 230 g rat, saturated for 10 min in oxygen
Procedure: The case was illustrated in a model with 30 min ischemia with Perfluorodecalin solution (7 ml for 230 g rat) saturated for 10 min in oxygen.

mucin2 [2] = experiment: Mucin2 fluorescent staining of jejunal sections, rat SAO model; assay type: in vivo; conditions: SAO 30 min, lumenal injection 30 min prior
Procedure: as §1, §2, §3, §4, §5, §6, §7

[3] = tested on: trypsin activity in the intestinal wall; experiment: In-situ zymography for trypsin activity in jejunal cryosections, rat splanchnic arterial occlusion (SAO) model; assay type: in vivo; conditions: lumenal injection 30 min prior
Procedure: as §1
Control groups: Animals with saline injection into the lumen of the intestine, 3 ml/100 g Body Weight (BW), 30 min prior to SHAM or SAO surgery.
as §2
ATP-MgCl2 groups: ATP-MgCl2 (Sigma-Aldrich), 25 mg/kg BW was injected in the lumen of the intestine 30 min prior to SHAM or SAO surgery (SHAM+ATP, SAO+ATP). […]
After 30 min SAO or sham surgery, the animals were euthanized (Beuthanasia®; 0.22 ml/kg BW, IV).
as §6
In-situ tissue zymography: In-situ zymography for trypsin activity in cryosections was assessed by measurement of fluorescence resulting from the proteolytic cleavage of the substrate (1 mM, Na-benzoyl-L-arginine-7-amido-methylcoumarin hydrochloride; Sigma-Aldrich) as described elsewhere with propidium iodine counterstaining (Sigma-Aldrich) (9). Slides were observed under an inverted microscope (20× and 60× objectives).

mucin2 [4] = experiment: Western blot for mucin2 of intestine homogenates, rat SAO model; assay type: in vivo; conditions: SAO 30 min, lumenal injection 30 min prior
Procedure: as §1, §2, §3, §4, §5
(§8) Homogenates of intestine and lumenal contents: Jejunal segments were excised without removal of lumenal contents. For enzyme activity measurements, segments of intestine were homogenized with CelLytic™ (Sigma-Aldrich) without addition of protease inhibitors. For Western blot assays the intestine segments were homogenized as above in the presence of protease inhibitors (5 mM EDTA, 5 mM N-Ethylmaleimide, 25 mM iodoacetamide, 5 mM benzamidine, 300 mM acarbose, 5 mM 6-aminocaproic acid, 1 mM protease inhibitor cocktail, (Sigma-Aldrich). In separate experiments the small intestine of sham animals was excised, and the lumenal contents were flushed with 20 ml saline. Homogenates or lumenal contents were centrifuged (16,000 g for 15 min at 4° C.), the supernatant was collected and protein concentration was assessed with the bicinchoninic acid protein assay (Thermo Scientific).
(§9) Western blot: 20 μg of tissue homogenate were separated by SDS-PAGE. Membranes were incubated with primary antibodies as follows: mucin2, mucin13 and trypsin 1:1000 (Santa Cruz Biotechnology), pancreatic amylase 1:1000 (GeneTex, San Antonio, Tex.), intra- and extra-cellular domains of E-cadherin and TLR4 1:1000 (Abcam), intracellular domain of TLR4 1:1000 (Invitrogen). Secondary antibodies were diluted 1:20000 (Santa Cruz Biotechnology) and detected with Super Signal West Pico (Thermo Scientific). The exposed x-ray films were scanned and label intensity was measured using digital gel analysis (NIH ImageJ software).

[5] = tested on: MDA equivalents (TBARS) in jejunal homogenates; experiment: Thiobarbituric Acid Reactive Substances (TBARS) assay, rat SAO model; assay type: in vivo; conditions: SAO 30 min; lumenal injection 30 min prior
Procedure: as §1, §2, §3
pH groups: Acidic saline (pH 5.5) injected in the lumen of the intestine 30 min prior SHAM surgery or HEPES buffer (20 mM) injected into the lumen of the intestine 30 min prior to SHAM or SAO surgery. […]
TBARS assay: Thiobarbituric Acid Reactive Substances (TBARS) was measured using the TBARS assay kit (Zeptometrix, Buffalo, N.Y.) according to manufacturer's protocol. […] Samples were centrifuged at 3000 rpm for 15 min and the supernatant were read at 530/550 (Ex/Em).

mucin13 = experiment: Western blot for mucin13 of intestine homogenates, rat SAO model; assay type: in vivo; conditions: SAO 30 min, lumenal injection 30 min prior
Procedure: as §1, §2, §3, §4, §5, §8, §9

[6] = tested on: ATP concentration in intestine homogenates; experiment: ATP assay in intestine homogenates, rat SAO model; assay type: in vivo; conditions: lumenal injection 30 min prior
Procedure: as §1, §2, §3, §4, §5
ATP assay: ATP concentrations in intestine homogenates were measured using ATP fluorometirc assay kit (BioVision, Mountain View, Calif.) according to manufacturer's protocol. Briefly jejuna sections were homogenized with perchloric acid (BioVision), centrifuged at 15,000×G for 5 min at 4° C. Samples were mixed with ATP reaction mix, incubated for 30 min protected from light and the fluorescence was measured with 535/587 (Ex/Em).

shock = conditions: ATP infusion before and during shock, given prior to hemorrhage; cited from earlier work
intestinal villi hypoxia = experiment: Hypoxia staining (pimonidazole, Hypoxyprobe-1) of intestinal villi, rat SAO model; assay type: in vivo; conditions: SAO 30 min; lumenal injection 30 min prior
Procedure: as §1, §2, §3, §4, §5
Hypoxia staining: In separate experiments tissue hypoxia was detected with Hypoxyprobe™-1 Kit (Natural Pharmacia International, Burlington, Mass., USA). This method utilizes a small molecular marker, pimonidazole, which after intravenous injection forms adducts with thiol containing proteins only in oxygen-starved cells. After general anesthesia as described above, pimonidazole-HCl (6 mg/100 g) was injected intravenously 30 min before SAO or SHAM; at 30 min the animal was euthanized and the jejuna section removed, embedded in O.C.T and frozen in liquid nitrogen. Then cryosections were immunostained using a rabbit antibody that binds to protein adducts of pimonidazole in hypoxic cells.

Row | Compound | lectin staining levels [1] | intestinal damage (ischemic intestine) | mucin2 staining levels (mucin2 [2]) | villi injury / villus structure (mucin2 [2]; micrographs) | trypsin activity in the intestinal wall ([3]; SAO 30 min) | trypsin activity in the intestinal wall ([3]; SAO 30 min, listed as oxygenated perfluorcarbon) | trypsin activity in the intestinal wall ([3]; SHAM surgery) | mucin2 protein levels (relative density, Western blot) (mucin2 [4]) | levels of MDA equivalents (TBARS) [5] | mucin13 protein levels / 17 kDa fragment (Western blot) (mucin13) | ATP concentration in intestinal tissue homogenates ([6]; SAO 30 min) | mucin2 staining levels (mucin2 [2]; listed as ATP) | survival of animals (shock) | trypsin activity in the intestinal wall ([3]; SAO 30 min, listed as ATP) | mucin2 protein levels (relative density, Western blot) (mucin2 [4]; listed as ATP) | mucin13 protein levels / 17 kDa fragment (Western blot) (mucin13; listed as ATP) | hypoxia staining levels (intestinal villi hypoxia) | ATP concentration in intestinal tissue homogenates ([6]; SHAM surgery)
1 | FC1(F)C(F)(F)C(F)(F)C2(F)C(F)(F)C(F)(F)C(F)(F)C(F)(F)C2(F)C1(F)F (centres unmarked) [oxygenated perfluorocarbon, Perfluorodecalin] | significantly higher as compared to SAO and SAO-PFC | minimize intestinal damage | significantly higher as compared to SAO and SAO-PFC | preserve the villus structure | prevents the appearance of trypsin activity inside the intestinal wall | undetectable levels of trypsin activity | minimal trypsin activity | mucin2 density levels similar to the sham; also recorded: reduces mucin2 and mucin13 degradation | significantly lower as compared to SAO or SAO+PFC | complete disappearance or very faint levels of the 17 kDa band; also recorded: reduces mucin2 and mucin13 degradation | no reduction of ATP concentration | – | – | – | – | – | – | –
2 | ATP-MgCl2 | significantly lower as compared to the SHAM and SHAM-ATP-MgCl2 | – | significantly lower as compared to the SHAM group with saline but was not statistically different from SHAM-ATP-MgCl2 | – | Low levels of trypsin activity | – | minimal trypsin activity | the same mucin2 and mucin13 protein levels as the sham | on average lower levels of MDA equivalents compared to SHAM or SAO, but they were not significant | the same mucin2 and mucin13 protein levels as the sham | significantly increased the ATP concentration | preservation of mucin2 staining | improves the survival of animals | less trypsin activity in the wall as compared to the ischemic group with only lumenal saline | preservation of mucin2 staining as well as protein levels of mucin2 and mucin13 | preservation of mucin2 staining as well as protein levels of mucin2 and mucin13 | significantly high levels of hypoxia staining as compared to SHAM groups | significantly increased the ATP concentration
